Like-named read-outs stand apart in the source and are kept apart here.
Columns and labels:
GABAA/α1 receptors = GABAA/α1 receptors (Homo sapiens, UniProt P14867+P18507); settings: Huang et al. 2000; cited from earlier work
[1] = test system: alcohol preferring rats (P) and high alcohol drinking rats (HAD); settings: cited from earlier work
[2] = molecular target: T1, α2β3γ2 benzodiazepine receptor GABA(A) isoform (UniProt P18507+P47869); test: Radioligand competition binding, α2β3γ2 BzR/GABA(A) isoform; parameters: species or system human and rat; settings: means of two determinations, read-out: Ki α2
T1 sequence (P18507 1-475): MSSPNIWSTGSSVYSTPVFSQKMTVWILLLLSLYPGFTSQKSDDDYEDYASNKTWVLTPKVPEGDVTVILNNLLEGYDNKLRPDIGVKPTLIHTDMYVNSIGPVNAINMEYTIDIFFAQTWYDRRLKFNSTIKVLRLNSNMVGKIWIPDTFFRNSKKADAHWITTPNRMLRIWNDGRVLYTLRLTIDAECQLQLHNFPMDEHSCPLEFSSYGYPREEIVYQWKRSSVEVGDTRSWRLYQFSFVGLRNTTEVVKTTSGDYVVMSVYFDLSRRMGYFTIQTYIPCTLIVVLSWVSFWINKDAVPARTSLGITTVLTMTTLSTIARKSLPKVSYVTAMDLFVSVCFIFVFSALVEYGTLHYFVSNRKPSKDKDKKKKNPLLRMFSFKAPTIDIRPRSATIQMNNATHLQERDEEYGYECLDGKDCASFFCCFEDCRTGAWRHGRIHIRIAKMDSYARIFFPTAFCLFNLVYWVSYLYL
T1 sequence (P47869 1-451): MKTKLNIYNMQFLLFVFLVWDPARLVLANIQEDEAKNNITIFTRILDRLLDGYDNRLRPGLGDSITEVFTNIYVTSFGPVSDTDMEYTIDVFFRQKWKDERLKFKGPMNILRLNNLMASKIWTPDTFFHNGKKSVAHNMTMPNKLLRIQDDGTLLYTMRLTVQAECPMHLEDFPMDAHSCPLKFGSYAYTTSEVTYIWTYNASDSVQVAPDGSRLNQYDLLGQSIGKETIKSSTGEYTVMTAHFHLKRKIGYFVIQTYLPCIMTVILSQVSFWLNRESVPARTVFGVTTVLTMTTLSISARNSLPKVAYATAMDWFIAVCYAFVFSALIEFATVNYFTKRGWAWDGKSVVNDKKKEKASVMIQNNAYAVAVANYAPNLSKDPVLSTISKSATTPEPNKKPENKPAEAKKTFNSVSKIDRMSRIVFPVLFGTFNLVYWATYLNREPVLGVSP
Description: (§1) The affinity of all ligands at the 6 major recombinant GABAA/BzR subtypes was measured by competition for [^3H]Ro15-1788 binding to HEK-T cells expressing both human and rat GABAA/Bz receptors of composition α1β2γ2 (α1), α2β2γ2 (α2), α3β2γ2 (α3), α4β2γ2 (α4), α5β2γ2 (α5) and α6β2γ2 (α6). It is well known that the β2 and β3 subunits can be interchanged with no effect on Bz ligand affinity or efficacy. […] These studies are similar to those performed in the laboratory of Bryan Roth who has already expressed the receptors employing the work of Kucken et. al. and Gray et. al.
(§2) In brief, for membrane preparations, the cells were scraped on to the ice and diluted into 5 mL of phosphate buffered saline (pH=7.40) and cells pelleted by centrifugation for 5 min. at 4° C. The pellet was resuspended in 1 mL of 50 mM Tris-acetate buffer (pH 7.4) and centrifuged at 18,000 g for 20 min. […] Each pellet were diluted to 6 mL and then 100 μL of membranes were incubated with approximately 1 nM final concentration of [^3H]Ro 15-1788 in a total volume of 250 μL together with serial dilutions of test compound for 90 min. on ice. The membranes were harvested in polyethyleneimine-pretreated Whatman GF/C filters and after drying and addition of scintillation cocktail, counted in a scintillation counter. The cpm retained on the filters was plotted against log concentration (M) and fitted to one site competition equation to obtain the Ki using Graphpad Prizm (V4.0) using the Cheng-Prusoff approximation.

[3] = molecular target: T2, α3β3γ2 benzodiazepine receptor GABA(A) isoform (UniProt P18507+P34903); test: Radioligand competition binding, α3β3γ2 BzR/GABA(A) isoform; parameters: species or system human and rat; settings: means of two determinations, read-out: Ki α3
T2 sequence (P18507 1-475): T1 sequence (P18507 1-475)
T2 sequence (P34903 1-492): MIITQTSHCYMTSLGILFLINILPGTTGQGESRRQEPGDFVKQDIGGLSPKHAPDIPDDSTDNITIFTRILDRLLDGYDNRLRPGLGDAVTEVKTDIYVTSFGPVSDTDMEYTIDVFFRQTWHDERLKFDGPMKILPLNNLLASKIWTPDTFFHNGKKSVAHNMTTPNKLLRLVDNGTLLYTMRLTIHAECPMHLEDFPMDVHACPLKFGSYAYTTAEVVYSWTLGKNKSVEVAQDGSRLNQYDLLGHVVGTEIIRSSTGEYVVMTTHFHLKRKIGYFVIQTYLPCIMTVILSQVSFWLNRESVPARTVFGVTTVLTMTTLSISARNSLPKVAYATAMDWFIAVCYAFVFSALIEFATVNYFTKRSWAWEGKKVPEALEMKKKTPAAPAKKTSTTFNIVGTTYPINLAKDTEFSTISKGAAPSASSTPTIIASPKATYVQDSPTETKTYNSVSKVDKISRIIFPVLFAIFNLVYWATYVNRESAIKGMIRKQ
Description: as §1, §2

[4] = molecular target: α6β3γ2 benzodiazepine receptor GABA(A) isoform (UniProt P18507+Q16445); test: Radioligand competition binding, α6β3γ2 BzR/GABA(A) isoform; parameters: species or system human and rat; settings: means of two determinations, read-out: Ki α6
Description: as §1, §2

[5] = molecular target: T3, α1β3γ2 benzodiazepine receptor GABA(A) isoform (UniProt P14867+P18507); test: Radioligand competition binding, α1β3γ2 BzR/GABA(A) isoform; parameters: Ki α1; means of two determinations; Ki α1; α1; species or system human and rat; settings: means of two determinations, read-out: Ki α1
T3 sequence (P14867 1-456): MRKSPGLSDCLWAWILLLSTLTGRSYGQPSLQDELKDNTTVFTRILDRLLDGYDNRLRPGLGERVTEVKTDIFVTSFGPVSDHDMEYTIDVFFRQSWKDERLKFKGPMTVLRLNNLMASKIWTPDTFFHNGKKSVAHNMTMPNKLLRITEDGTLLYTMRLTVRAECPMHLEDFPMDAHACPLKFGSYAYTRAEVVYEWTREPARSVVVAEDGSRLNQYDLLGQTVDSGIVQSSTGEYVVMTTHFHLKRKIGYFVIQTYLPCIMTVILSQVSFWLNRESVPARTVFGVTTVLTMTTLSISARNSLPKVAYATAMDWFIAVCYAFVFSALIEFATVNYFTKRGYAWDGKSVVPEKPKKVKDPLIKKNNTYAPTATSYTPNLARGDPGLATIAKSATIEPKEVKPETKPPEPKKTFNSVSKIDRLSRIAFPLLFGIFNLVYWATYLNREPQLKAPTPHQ
T3 sequence (P18507 1-475): T1 sequence (P18507 1-475)
Description: as §1, §2

[6] = molecular target: T4, α5β3γ2 benzodiazepine receptor GABA(A) isoform (UniProt P18507+P31644); test: Radioligand competition binding, α5β3γ2 BzR/GABA(A) isoform; parameters: Ki α5; means of two determinations; Ki α5; α5; other: text; species or system human and rat
T4 sequence (P18507 1-475): T1 sequence (P18507 1-475)
T4 sequence (P31644 1-462): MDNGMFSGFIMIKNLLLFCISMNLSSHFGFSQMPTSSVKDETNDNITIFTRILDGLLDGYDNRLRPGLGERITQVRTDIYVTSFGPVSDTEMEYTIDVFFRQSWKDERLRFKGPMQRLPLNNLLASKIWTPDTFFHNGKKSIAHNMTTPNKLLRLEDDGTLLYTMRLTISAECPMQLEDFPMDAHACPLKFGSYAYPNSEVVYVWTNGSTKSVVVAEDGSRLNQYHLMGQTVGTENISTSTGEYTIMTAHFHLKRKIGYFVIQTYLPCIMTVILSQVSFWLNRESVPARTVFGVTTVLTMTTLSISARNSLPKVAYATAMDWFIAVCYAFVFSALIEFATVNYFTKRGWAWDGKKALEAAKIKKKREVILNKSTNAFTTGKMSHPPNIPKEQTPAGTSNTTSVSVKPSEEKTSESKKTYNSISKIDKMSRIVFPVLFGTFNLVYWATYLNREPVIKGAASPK

[7] = read-out: Ki α5; Table I; means of two determinations
[8] = Table 2; means of two determinations; read-out: Ki α5
[9] = read-out: Ki α5; Table 2; means of two determinations

GABAA/α1 receptors, sequence (P28472 26-473 partner, one chain of several): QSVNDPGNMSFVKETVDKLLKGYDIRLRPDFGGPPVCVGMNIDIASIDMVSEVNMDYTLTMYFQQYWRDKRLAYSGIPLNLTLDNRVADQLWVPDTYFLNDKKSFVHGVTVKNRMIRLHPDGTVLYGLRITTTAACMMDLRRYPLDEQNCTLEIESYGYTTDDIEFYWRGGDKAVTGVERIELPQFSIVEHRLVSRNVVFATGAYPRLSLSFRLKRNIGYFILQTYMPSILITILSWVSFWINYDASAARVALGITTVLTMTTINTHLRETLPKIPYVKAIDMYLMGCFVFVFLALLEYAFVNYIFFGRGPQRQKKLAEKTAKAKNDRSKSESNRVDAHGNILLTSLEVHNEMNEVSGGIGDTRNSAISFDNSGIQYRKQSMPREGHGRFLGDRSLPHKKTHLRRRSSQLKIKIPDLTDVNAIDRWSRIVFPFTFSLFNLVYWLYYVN

SMILES | Ki ([2]; Table I) [nM] | Ki ([3]; Table I) [nM] | Ki ([4]; Table I) [nM] | Ki ([5]; Table I) [nM] | Ki [6, 7] [nM] | Ki ([2]; Table 2) [nM] | Ki ([3]; Table 2) [nM] | Ki ([4]; Table 2) [nM] | Ki ([5]; Table 2) [nM] | also measured
CC(C)(C)OC(=O)c1cc2c(cn1)[nH]c1ccccc12 [BCCt, β-carboline-3-carboxylate-tbutyl ester] | – | – | – | – | – | – | – | – | – | selectivity for α1 over other BzR subtypes (GABAA/α1 receptors): 20 fold; alcohol self administration (in words) ([1]; P and HAD rats, June et al. 2003, Foster et al. 2004): potently reduced alcohol self administration; anxiolytic activity (in words) ([1]; P and HAD rats): exhibits anxiolytic activity; sedative-hypnotic effects of alcohol (in words) ([1]; P rats and HAD rats): antagonized the sedative-hypnotic effects of alcohol
CN1Cc2c(CCl)ncn2-c2ccc(Cl)cc2C1=O [Ligand 12b] | > 300 | > 300 | > 300 | > 300 | 28.5 | – | – | – | – | –
CCOCc1ncn2c1CN(C)C(=O)c1cc(Cl)ccc1-2 [Ligand 12c] | > 300 | > 300 | > 300 | > 300 | 82.7 | – | – | – | – | –
C#CC#Cc1ccc2c(c1)C(=O)N1CCC[C@H]1c1c(C(=O)OCC)ncn1-2 [Ligand 14] | – | – | – | – | 64 | – | – | – | – | –
CCOC(=O)c1ncoc1-c1ncn2c1[C@@H]1CCN1C(=O)c1cc(Br)ccc1-2 [RY062] | – | – | – | – | – | > 1000 | > 500 | > 2000 | > 1000 | Ki [6, 8]: 172 nM
CCOC(=O)c1ncoc1-c1ncn2c1[C@@H]1CCN1C(=O)c1cc(C#C[Si](C)(C)C)ccc1-2 [RY068] | – | – | – | – | – | 877 | 496 | > 1000 | > 500 | Ki [6, 9]: 37 nM
C#Cc1ccc2c(c1)C(=O)N1CC[C@H]1c1c(-c3ocnc3C(=O)OCC)ncn1-2 [RY069] | – | – | – | – | – | 622 | 506 | > 1000 | 692 | Ki [6, 9]: 19 nM
C#Cc1ccc2c(c1)C(=O)N1CC[C@@H]1c1c(-c3nc(C)no3)ncn1-2 [RY-I-29] | > 1000 | > 1000 | > 1000 | > 1000 | – | > 1000 | > 1000 | > 1000 | > 1000 | Ki [6, 8]: 157 nM; Ki ([6]; Table I; means of two determinations; read-out: Ki α5): 157 nM

Reference: patent US7595395B2, “Gabaergic agents to treat memory deficits” (priority 2005, dated 2009)
